# How the values were obtained:
# 15-hLO = details: read-out: previous IC50 15-hLO; previous work without Triton X100 ref 9; cited from earlier work
# [1] = test system: human lung adenocarcinoma cells over human leukemic lymphoid cells; assay: Soft agar disk diffusion assay; assay type: cell-based; details: Table S4
# 12-hLO [2] = details: read-out: previous IC50 12-hLO; previous work without Triton X100 ref 9; cited from earlier work
# [3] = biological target: T1, human 5-lipoxygenase (5-hLO) (Homo sapiens, UniProt P09917); assay: Lipoxygenase assay, 5-hLO; details: ratio of IC50 values
# T1 sequence (P09917 1-674): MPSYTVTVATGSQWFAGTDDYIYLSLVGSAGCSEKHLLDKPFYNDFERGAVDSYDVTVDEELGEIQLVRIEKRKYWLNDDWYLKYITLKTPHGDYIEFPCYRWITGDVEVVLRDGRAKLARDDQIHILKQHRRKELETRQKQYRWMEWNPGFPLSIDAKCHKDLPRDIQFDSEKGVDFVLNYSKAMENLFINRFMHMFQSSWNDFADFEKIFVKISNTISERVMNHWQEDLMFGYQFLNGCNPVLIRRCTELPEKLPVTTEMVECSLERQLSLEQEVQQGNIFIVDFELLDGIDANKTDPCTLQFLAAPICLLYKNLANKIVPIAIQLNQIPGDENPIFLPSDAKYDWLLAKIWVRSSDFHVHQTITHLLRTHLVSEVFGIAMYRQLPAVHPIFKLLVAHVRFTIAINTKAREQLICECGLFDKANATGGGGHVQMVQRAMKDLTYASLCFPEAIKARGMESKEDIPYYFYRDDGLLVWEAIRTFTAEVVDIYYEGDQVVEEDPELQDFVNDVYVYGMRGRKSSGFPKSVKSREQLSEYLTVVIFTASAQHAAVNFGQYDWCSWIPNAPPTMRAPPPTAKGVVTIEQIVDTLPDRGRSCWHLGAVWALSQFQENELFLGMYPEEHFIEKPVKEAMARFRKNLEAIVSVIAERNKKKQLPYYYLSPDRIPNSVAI
# 12-hLO [4] = details: data from literature ref 20; cited from earlier work
Structure (SMILES),IC50 (15-hLO) [µM],selectivity against solid tumor cells [1],IC50 (12-hLO [2]) [µM],12-hLO/5-hLO selectivity ratio [3],15-hLO/5-hLO selectivity ratio [3],12-hLO activity (12-hLO [4])
"CC1(C)CCC[C@]2(C)[C@H]3C=C4C=C(O)C(=O)C=C4O[C@@]3(C)CC[C@@H]12 [Compound 1, puupehenone]",0.8,modest selectivity,8.3,32,9,
"CC1(C)CCC[C@]2(C)[C@H]3C=C4C(=CC(=O)[C@@H]4O)O[C@@]3(C)CC[C@@H]12 [Compound 3, 20-hydroxyhaterumadienone]",,,,~ 3,~ 3,
"CC1(C)CCC[C@]2(C)C3=CC4=CC(=O)C(=O)C=C4O[C@@]3(C)CC[C@@H]12 [Compound 5, puupehedione]",,,,4,,
"CC1=C(CC/C(C)=C/CC/C(C)=C/Cc2cc(O)ccc2O)C(C)(C)CCC1 [Compound 9, jaspaquinol]",0.3,,4.5,> 111,42,
"C[C@@H](c1cc2ccccc2s1)N(O)C(N)=O [Compound 13, zileuton]",,,,,,"Active ^*, ^**"

# From publication PMC2996101 (Journal of natural products, 2009)
